Experimental data taken from paper PMC2843403 (Bioorganic & medicinal chemistry, 2010).

Legend:
PKCδ C1B [1] = biological target: T1, PKCδ C1B (Mus musculus, UniProt P28867); assay: Fluorescence quenching binding to PKCδ C1B; details: fit of fluorescence quenching of PKCδ C1B (2 μM), Fig. 3
Target sequence in this assay (P28867 231-280): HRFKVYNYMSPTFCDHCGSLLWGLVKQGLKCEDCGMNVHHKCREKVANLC

Solubility = assay type: physicochemical
PKCδ C1B [2] = biological target: T1, PKCδ C1B; assay: Emission maximum of ligand in presence of PKCδ C1B; assay type: binding; details: buffer versus presence of C1B subdomain (590 to 560 nm)
Target sequence in this assay (P28867 231-280 limits assumed): as the sequence (P28867 231-280) above

SMILES | Hill coefficient (PKCδ C1B [1]) | Solubility in water (Solubility) | Blue shift of emission maximum (PKCδ C1B [2]) [nm]
CCCCCCCCCCCCCC(=O)O[C@@H]1[C@@H](C)[C@@]2(O)[C@@H](C=C(CO)C[C@]3(O)C(=O)C(C)=C[C@@H]23)[C@@H]2C(C)(C)[C@]12OC(C)=O [TPA, 12-O-tetradecanoylphorbol-13-acetate, reference compound] | 1.8 |  | 
COc1cc(/C=C/C(=O)CC(=O)/C=C/c2ccc(O)c(OC)c2)ccc1O [Compound 1, Curcumin] | 1.6 | poorly soluble | 
CCCCCCCCCCCCCCCCOc1ccc(/C=C/C(O)=C/C(=O)/C=C/c2ccc(O)c(OC)c2)cc1OC [Compound 4, (1E, 4Z, 6E)-7-(4-(hexadecyloxy)-3-methoxyphenyl)-5-hydroxy-1-(4-hydroxy-3-methoxyphenyl)hepta-1,4,6-trien-3-one] | 2 |  | 30
